Test systems include SF-268 CNS; OVCAR-5 ovarian; BT-549 breast; K-562 leukemia; OVCAR-3 ovarian; TK-10 renal; HOP-62 NSCLC; HCT-15 colon; LOX IMVI melanoma; PC-3 prostate.
What all share (test): NCI-60 cell line screen, 48 h

Drawing on PubChem BioAssay (NCI), this text covers GI50 and TGI for 14 compounds.

Values joined by “and” are separate entries in the source; they are usually repeats but may differ in a detail not shown here. Identical values can stand only once.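 All cell lines were grown in 96-well plates and treated with compound for 48 hours. Abbreviation: GI50, concentration required for 50% inhibition of growth. TGI: total growth inhibition.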 Where a SMILES comes first, the peptide text is derived from it. The star is where a group is joined. Palmitoyl = CCCCCCCCCCCCCCCC(=O)*

For `CCCCCCCCCCCCCCCC(=O)NC(CCCCN)C(=O)NCC(=O)NC(Cc1ccccc1)C(=O)N1CCCC1C(=O)NC(CO)C(=O)NC(Cc1ccc(O)cc1)C(=O)NC(CCCCN)C(=O)NC(CC(C)C)C(=O)NC(CCCN=C(N)N)C(=O)N1CCCC1C(=O)NCC(N)=O` (configuration not stated) (Palmitoyl-KGFPSYKLRPG-NH2; configuration not given here), the GI50 in the experiment with SF-268 CNS was 21.7 µM; in the experiment with OVCAR-5 ovarian, 20.7 µM; in the experiment with BT-549 breast it was 24.1 µM; with K-562 leukemia, 22.2 µM; in the experiment on OVCAR-3 ovarian it was 28.6 µM; with TK-10 renal, 21.9 µM. For the same compound, in the experiment on HOP-62 NSCLC, the GI50 was 24.4 µM. Further, the TGI in the experiment with SF-268 CNS was found to be 46.1 µM; in the experiment on OVCAR-5 ovarian it was 48.1 µM; in the experiment on BT-549 breast, 50.4 µM; in the experiment with K-562 leukemia it was 47.9 µM; with OVCAR-3 ovarian it was 76.5 µM; with TK-10 renal it was 44.8 µM. The TGI in the experiment on HOP-62 NSCLC amounted to 53.6 µM.

`OCc1ccccc1OC1OC(CO)C(O)C(O)C1O` (configuration not stated): the TGI in the experiment with HCT-15 colon, in the experiment on SF-268 CNS, with OVCAR-5 ovarian, in the experiment with BT-549 breast, in the experiment with OVCAR-3 ovarian and in the experiment with LOX IMVI melanoma was above 100 µM throughout. In addition, the TGI in the experiment on PC-3 prostate, with TK-10 renal and in the experiment with HOP-62 NSCLC was above 100 µM throughout.

As for `CC(=O)OCC1OC(n2c3c(c(-c4ccco4)c(C#N)c2=S)CCCC3)C(OC(C)=O)C(OC(C)=O)C1OC(C)=O` (configuration not stated), the TGI is above 31.6 µM with HCT-15 colon; above 31.6 µM in the experiment on SF-268 CNS; above 31.6 µM with OVCAR-5 ovarian; above 31.6 µM in the experiment on OVCAR-3 ovarian; above 31.6 µM in the experiment on LOX IMVI melanoma; 24.8 µM in the experiment with TK-10 renal. Besides, in the experiment with HOP-62 NSCLC, the TGI was determined as 21.8 µM.

With `NC(CO)c1ccccc1` (configuration not stated), the TGI with HCT-15 colon, with SF-268 CNS, in the experiment on OVCAR-5 ovarian, in the experiment on OVCAR-3 ovarian, with LOX IMVI melanoma and in the experiment with TK-10 renal was above 100 µM throughout. This compound also displayed a TGI in the experiment with HOP-62 NSCLC above 100 µM.

As for `CC(=O)Oc1ccc2c(c1)c1c(OC(C)=O)c3ccccc3c(OC(C)=O)c1n2Cc1cccc(C)c1`, the TGI was above 100 µM with HCT-15 colon; above 100 µM in the experiment with SF-268 CNS; above 100 µM with OVCAR-5 ovarian; above 100 µM in the experiment on BT-549 breast; above 100 µM with K-562 leukemia; 72.9 µM in the experiment on OVCAR-3 ovarian. The TGI in the experiment on PC-3 prostate is above 100 µM; in the experiment on TK-10 renal, above 100 µM; in the experiment with HOP-62 NSCLC, 67.3 µM.

Regarding `C=C1C(=O)C[C@@]23CCC[C@@]12CC(O)C3` (some centres not stated), the TGI was 28.8 µM in the experiment on HCT-15 colon; above 100 µM in the experiment with SF-268 CNS; above 54.2 µM in the experiment with OVCAR-5 ovarian; above 87 µM with K-562 leukemia; 33.7 µM in the experiment with OVCAR-3 ovarian; 31.3 µM in the experiment on LOX IMVI melanoma. In addition, the TGI with HOP-62 NSCLC is above 100 µM.

With `CN1C/C(=C\c2ccccc2[N+](=O)[O-])C(=O)/C(=C/c2ccccc2[N+](=O)[O-])C1`, the TGI in the experiment on HCT-15 colon is 0.527 µM and 0.696 µM; in the experiment with SF-268 CNS, 7.23 µM and 2.86 µM; with OVCAR-5 ovarian it was 10.3 µM and 3.87 µM; with BT-549 breast, 0.448 µM and 2.09 µM; in the experiment on OVCAR-3 ovarian it was 1.64 µM and 0.717 µM; with PC-3 prostate it was 6.45 µM and 3.29 µM. The TGI in the experiment on TK-10 renal was 2.42 µM and 2.17 µM; with HOP-62 NSCLC, 7.8 µM and 8.77 µM. Also, the GI50 in the experiment with SF-268 CNS is 1.78 µM and 0.737 µM; in the experiment on OVCAR-5 ovarian, 3.27 µM and 1.05 µM; with BT-549 breast, 0.149 µM and 0.626 µM; with K-562 leukemia, 0.25 µM and 0.089 µM; in the experiment on OVCAR-3 ovarian, 0.503 µM and 0.179 µM.

With `O=C(O)CCCc1nc2c(n1-c1ccccc1)C(=O)c1ccccc1C2=O`, the TGI with HCT-15 colon was above 100 µM; in the experiment with SF-268 CNS, above 100 µM; with OVCAR-5 ovarian, above 100 µM; in the experiment on K-562 leukemia it was above 100 µM; in the experiment on OVCAR-3 ovarian it was 82.7 µM; with LOX IMVI melanoma it was above 100 µM. Moreover, the TGI in the experiment with TK-10 renal was above 100 µM.

For `COc1ccc(C=O)cc1Oc1ccc(C[C@H]2c3c(cc(OC)c4c3Oc3cc5c(cc3O4)CCN(C)C5=O)CCN2C)cc1`, the TGI in the experiment with HCT-15 colon was determined as 27.5 µM; in the experiment on SF-268 CNS, 22.4 µM; with OVCAR-5 ovarian it was 34.8 µM; in the experiment on K-562 leukemia, 12.3 µM; with OVCAR-3 ovarian, 15.4 µM; with LOX IMVI melanoma, 21.8 µM. The TGI in the experiment with PC-3 prostate was 17.5 µM; with TK-10 renal, 18.4 µM; in the experiment with HOP-62 NSCLC it was 15.1 µM.

In the case of `COC(=O)CCc1ccc2c(c1)CC1(C2)Cc2ccc(CCC(=O)OC)cc2C1`, the TGI is above 100 µM in the experiment on HCT-15 colon; above 100 µM in the experiment with OVCAR-5 ovarian; above 100 µM with K-562 leukemia; above 100 µM with OVCAR-3 ovarian; 97.1 µM in the experiment on LOX IMVI melanoma; above 100 µM in the experiment with PC-3 prostate. Moreover, the TGI in the experiment on TK-10 renal and in the experiment on HOP-62 NSCLC was above 100 µM throughout.

`CSc1nc2c(ncn2C2OCC(O)C(O)C2O)c(=O)[nH]1` (configuration not stated): the TGI in the experiment with HCT-15 colon, in the experiment with SF-268 CNS, in the experiment with OVCAR-5 ovarian, in the experiment on K-562 leukemia, with OVCAR-3 ovarian and in the experiment with LOX IMVI melanoma was above 100 µM in each case. The compound further displayed a TGI with HOP-62 NSCLC above 100 µM.

On to `COC1(OC)N=C(N)C2(C#N)/C(=N/N(C)C)CC(C)C12C#N` (configuration not stated), for which the TGI in the experiment with HCT-15 colon, with SF-268 CNS, in the experiment with OVCAR-5 ovarian, in the experiment on K-562 leukemia, in the experiment on LOX IMVI melanoma and in the experiment on PC-3 prostate was above 100 µM in each case. The TGI in the experiment on TK-10 renal and in the experiment with HOP-62 NSCLC was above 100 µM throughout.

For `CC(=O)c1c(O)c(C)c(O)c2c1OC1=CC(=O)C(C(C)=O)C(=O)C12C` (configuration not stated), the GI50 was 5.23 µM and 16.6 µM in the experiment on HCT-15 colon; 9.46 µM and 26.1 µM with SF-268 CNS; 17.1 µM and 38.1 µM in the experiment on OVCAR-5 ovarian; 4.62 µM and 23 µM with K-562 leukemia; 1.05 µM and 5.74 µM in the experiment with OVCAR-3 ovarian; 5.53 µM and 12.6 µM in the experiment with LOX IMVI melanoma. Moreover, in the experiment on HOP-62 NSCLC, the GI50 was 3.66 µM and 20.1 µM. Also, the TGI in the experiment on HCT-15 colon is 27.6 µM and 60.4 µM; with SF-268 CNS it was 42.2 µM and 91.7 µM; with OVCAR-5 ovarian, 50.4 µM and 84.6 µM; in the experiment on K-562 leukemia it was 24.3 µM and 84.8 µM; with OVCAR-3 ovarian it was 3.72 µM and 15.5 µM; with LOX IMVI melanoma, 33.3 µM and 37.9 µM. In addition, in the experiment with HOP-62 NSCLC, the TGI was 12.2 µM and 46.1 µM.

Regarding `CC(=O)Nc1ncc2c(n1)-c1ccccc1OC2`, the TGI with HCT-15 colon, in the experiment on SF-268 CNS, in the experiment on OVCAR-5 ovarian, in the experiment on BT-549 breast, with OVCAR-3 ovarian and in the experiment with LOX IMVI melanoma was above 100 µM throughout. In addition, the TGI in the experiment on PC-3 prostate and with TK-10 renal was above 100 µM each time.
